Reference: patent publication US20200214999A1, “Method for Treating an Inflammatory Disorder” (Allianz Pharmascience Ltd., priority 2019, published 2020)

Assays:
[1] = system: inflammatory cytokine induced cytokine expression in dendritic cells (GMDC); assay: TNF-α or IL-1β induced cytokine expression in GMDC by RT-qPCR; assay type: cell-based, mouse; settings: GMDC pre-treated 1 hr, then TNF-α or IL-1β for 24 hrs
Method: Dendritic cells were pre-treated with different concentration of ASC-J9 and ASC-JM17 for 1 hour and then inflammatory cytokine TNF-α or IL-1β were added for 24 hours. Expression of mouse cytokine genes was measured by RT-qPCR. *: p<0.05; ns: not significant.
(§1) Cell culture: Mouse bone marrow derived dendritic cells (BMDC) and bone marrow derived macrophages (BMDM) were generated from mouse bone marrow cells. Briefly, dendritic cells can be generated by two induction procedures. Bone marrow cells can be induced into myeloid DCs called GMDC with GM-CSF and IL-4 for 10 days, while a mixed types of DCs including myeloid and plasmacytoid DCs called Fit3DC can be generated by induction with fit3-ligand for 10 days. To generate BMDMs, bone marrow cells are induced into BMDM by 30% L929 conditioned medium for 7 days.
(§2) Analysis of gene expression: Total RNA was purified from cells using Isol-RNA Lysis Reagent (5 PRIME GmbH, Hilden, Germany) according to the manufacturer's protocol. Reverse-transcription was performed using the QuantiNova® Reverse Transcription Kit (QIAGEN™) and oligo-dT primers for first-strand cDNA synthesis. Quantitative PCR was performed with gene-specific primers (see appendix) using LightCycler480 detection system (Roche Diagnostics GmbH, Penzberg, Germany) and QuantiNova® SYBR Green RT-PCR Kit for gene expression analysis. The level of mRNA expression was normalized to that of GAPDH.
(§3) Anti-inflammatory effects of J9 and JM17 for inflammatory cytokine including TNF-α, IL-1β, IL-17A, IL-22, IL-23 and IL-31 induced by TLR ligand in various immune cells including mouse splenocytes, mouse bone marrow derived dendritic cells and bone marrow derived macrophages were analyzed by quantitative PCR (RT-qPCR).
To evaluate the anti-inflammatory effects of J9 and JM17 in vitro, GMDC were pre-treated with J9 and JM17 for 1 hr and stimulated with the inflammatory cytokine, TNF-α or IL-1β[…]for 24 hrs. Expression of cytokines including TNF-α, IL-1β, IL-17A, IL-22, IL-23, and IL-31 were measured by RT-qPCR. […] Expression of IL-17A was not induced by TNF-α or IL-1β. […]

[2] = system: Fit3DC (mouse bone marrow derived dendritic cells, fit3-ligand induced); assay: MTS assay for cell viability (cytotoxicity) on Fit3DC; assay type: cell-based; settings: 24 hours, 0 μM to 10 μM tested
Method: (§4) Cells were treated with different concentration of ASC-J9 and ASC-JM17 for 24 hours. Viability of cells were measured by MTS Assays. *: p<0.05.
(§5) MTS assay for cell viability: The cell toxicity of test articles is measured by MTS assay. The MTS assay is based on the reduction of the MTS tetrazolium compound by viable cells to generate a colored formazan dye that is soluble in cell culture media. This conversion is thought to be carried out by NAD(P)H-dependent dehydrogenase enzymes in metabolically active cells. The formazan dye is quantified by measuring the absorbance at 490-500 nm. The non-toxic dose will be applied for further assays.
as §1, with “To generate BMDMs, bone marrow cells are induced into BMDM by 30% L929 conditioned medium for 7 days.” left out
(§6) The goal of this example is to evaluate the anti-inflammatory abilities of J9 and JM17 on psoriatic inflammation in vitro and in vivo. To find the safety doses of J9 and JM17 for in vitro study, cytotoxicity of J9 and JM17 were measured by MTS assay. […]

[3] = system: IMQ-induced psoriatic inflammation; assay: IMQ-induced psoriatic inflammation model, #1 animal experiment (10 days); assay type: in vivo, Balb/c mice; settings: for erythema, scaling, and thickness in lesional skins: photographic observation
Method: Balb/c mice were topical treated with imiquimod (IMQ) and with control cream, ASC-J9 or clobetasol for consecutive 10 days. (A) Schematic schedule was illustrated. Photographic observations in each group were shown at day 0 (B), day 5 (C) and day 10 (D).
Balb/c mice were topical treated with imiquimod (IMQ) and with control cream, ASC-J9 or clobetasol for consecutive 10 days. (A) The severity of inflammatory responses on the skin was assessed on the basis of the Psoriasis Area Severity Index. (B) Ten days after treatment, the mice were sacrificed and their skin thickness was measured with vernier caliper to assess the severity of the psoriatic responses. (C) Expession of cytokine genes in mouse skin after 10 day treatment by RT-qPCR. (D) H&E staining of lesional skin after 10 day treatment. *: p<0.05; **: […]; ns: not significant.
(§7) Animal Model of Psoriatic Inflammation: 30 or 40 mg of 5% IMQ gel (Aldara™) was smeared on the shaved backs of Balb/c mice each day for 5 or 10 days. The severity of the skin's inflammatory response was assessed on the basis of the Psoriasis Area Severity Index (PASI) as described. Briefly, the three parameters of psoriasis responses—erythema, scaling, and skin thickness—were scored independently on a scale from 0 to 4 as follows: 0: none; 1: slight; 2: moderate; 3: marked; and 4: very marked. By adding the scores from these three parameters, the severity of the response was measured using the cumulative score from 0 to 12. At the end of the experiment, the mice were sacrificed for measurement of skin thickness with vernier caliper. Group Assignments and Dose Levels of animal studies are described as follows:
(§8) The mice were (1) photoed for evaluation and analyzed (2) Psoriasis Area Severity Index (PASI); (3) Skin thickness measurement. We selected the sample in experiment with better inhibitory effect for further analysis by accessing: (1) H&E staining and (2) inflammatory gene expression including TNF-α, IL-1β, IL-17A, IL-22, IL-23 and IL-31 in lesional tissue by quantitative PCR (RT-qPCR).
We further evaluated anti-inflammatory effects of J9 on psoriatic inflammation in vivo. First, we compared the effects of J9 control cream, J9 cream and clobetasol on inhibition of IMQ-induced psoriatic inflammation in a 10-day experimental schedule (FIG. 5A). Mice of each group were photoed for evaluation at day 0, day 5 and day 10 (FIGS. 5B, 5C and 5D). […] In control cream group, there were no inhibitory effects observed (FIG. 5B). […] These phenomena were reached most severe at day 5 (FIGS. 5 and 6A). […] The skin thickness were measured at day 10. […] Expression of cytokine genes including TNF-α, IL-1β, IL-17A, IL-22, IL-23 and IL-31 in lesional skin were also analyzed. Of these cytokines, we observed that J9 attenuated IMQ-induced IL-1β expression at day 10 (FIG. 6C).

[4] = system: artemin (ARTN) expression in keloid patient derived fibroblasts 256K and 268K; assay: ARTN mRNA expression in keloid patient derived fibroblasts by qPCR; assay type: cell-based, human; settings: keloid fibroblasts 256K and 268K, 24 hr treatment, mRNA by qPCR vs GAPDH
Method: Two keloid patient derived fibroblasts named 256K and 268K were treated with ASC-J9 for 24 hr. The cells were then harvested and mRNA expression of ARTN and GAPDH were determined by qPCR.

[5] = system: GMDC (mouse bone marrow derived myeloid dendritic cells); assay: MTS assay for cell viability (cytotoxicity) on GMDC; assay type: cell-based; settings: 24 hours, 0 μM to 10 μM tested
Method: as §4, §5
as §1, with “To generate BMDMs, bone marrow cells are induced into BMDM by 30% L929 conditioned medium for 7 days.” left out
as §6

[6] = system: R848 induced cytokine expression in mouse bone marrow derived macrophages (BMDM); assay: R848 induced cytokine expression in bone marrow derived macrophages by RT-qPCR; assay type: cell-based; settings: 1 μM pre-treatment 1 hour, R848 6 hours
Method: Macrophages were pre-treated with 1 μM of ASC-J9 or ASC-JM17 for 1 hour and then TLR ligand, R848 were added for 6 hours. Expression of mouse cytokine genes were measured by RT-qPCR. *: p<0.01; ns: not significant.
as §1, §2, §3
(§9) We also evaluate anti-inflammatory effects of J9 and JM17 on mouse splenocytes and bone marrow derived macrophages. Mouse splenocytes were pre-treated with J9 and JM17 for 1 hr and TLR ligand, R848, were then added for 6 hrs.

[7] = system: IMQ-induced psoriatic inflammation; assay: IMQ-induced psoriatic inflammation model, #2 animal experiment (5 days); assay type: in vivo, Balb/c mice; settings: for IMQ-induced inflammation: photographic observation
Method: Balb/c mice were topical treated with imiquimod (IMQ) and with control cream, different dose of ASC-J9 for consecutive 5 days. (A) Schematic schedule was illustrated. Photographic observations in each group were shown at day 0 (B), day 5 (C).
Balb/c mice were topical treated with imiquimod (IMQ) and with control cream, different dose of ASC-J9 for consecutive 5 days. (A) The severity of inflammatory responses on the skin was assessed on the basis of the Psoriasis Area Severity Index. (B) Five days after treatment, the mice were sacrificed and their skin thickness was measured with vernier caliper to assess the severity of the psoriatic responses. […]
as §7, §8
To further understand the therapeutic effects of different concentration of J9 cream, 0.5% J9 (2 mg/cm^2 and 6 mg/cm^2), 0.1% J9 (10 mg/cm^2) and 0.05% J9 cream(2 mg/cm^2) were used to evaluate therapeutic effects on IMQ-induced psoriatic inflammation in a five-day experimental schedule (FIG. 7A). Mice of each group were photoed for evaluation at day 0 and day 5 (FIGS. 7B and 7C). […] PASI score, skin thickness and gene expression of lesional skin were also measured.

[8] = system: R848 induced cytokine expression in mouse splenocytes; assay: R848 induced cytokine expression in mouse splenocytes by RT-qPCR; assay type: cell-based; settings: 1 μM pre-treatment 1 hr, R848 6 hrs
Method: Mouse splenocytes were pre-treated with 1 μM of ASC-J9 or ASC-JM17 for 1 hour and then TLR ligand, R848 were added for 6 hours. Expression of mouse cytokine genes were measured by RT-qPCR. *: p<0.01.
as §2, §3, §9

COc1ccc(/C=C/C(=O)CC(=O)/C=C/c2ccc(OC)c(OC)c2)cc1OC [ASC-J9]
TNF-α or IL-1β induced IL-1β expression [1]: significantly inhibit
TNF-α or IL-1β induced IL-22 expression [1]: did not attenuate
TNF-α or IL-1β induced TNF-α expression [1]: significantly inhibit
non-toxic doses (cells resistant up to) [2]: up to 10 μM
erythema, scaling, and thickness in lesional skins ([3]; 0.5% J9 cream 2 mg/cm^2 topical daily, after 5 day treatment): significantly reduced
erythema, scaling, and thickness in lesional skins ([3]; 0.5% J9 cream 10 mg/cm^2 topical daily, after 5 day treatment): significantly reduced
IMQ-induced increase of skin thickness ([3]; J9 2 mg/cm^2, measured at day 10 with vernier caliper): significantly inhibited
Psoriasis Area Severity Index (PASI) score ([3]; J9 2 mg/cm^2 topical daily, at day 3 to day 10): significantly decreased
IMQ-induced increase of skin thickness ([3]; J9 10 mg/cm^2, measured at day 10 with vernier caliper): significantly inhibited
Psoriasis Area Severity Index (PASI) score ([3]; J9 10 mg/cm^2 topical daily, at day 4 to day 6): significantly decreased
IMQ-induced IL-1β expression in lesional skin ([3]; at day 10, RT-qPCR): attenuated
thickeness of the epidermis and dermis and keratinocyte proliferation in epidermis and inflammation (H&E staining) ([3]; lesional skin after 10 day treatment): reduced
artemin (ARTN) expression (pruritus marker) [4]: down-regulating
non-toxic doses (cells resistant up to) [5]: up to 10 μM
R848-induced expression of IL-1β [6]: inhibited
R848-induced expression of IL-17A [6]: inhibited
R848-induced expression of IL-22 [6]: inhibited
R848-induced expression of IL-31 [6]: inhibited
R848-induced expression of TNF-α [6]: inhibited
IMQ-induced expression of IL-1(3 in lesional skin) ([7]; 0.1% J9 10 mg/cm^2, RT-qPCR): inhibited
IMQ-induced expression of TNF-a in lesional skin ([7]; 0.1% J9 10 mg/cm^2, RT-qPCR): inhibited
IMQ-induced inflammation ([7]; 0.1% J9 10 mg/cm^2, after 5 day treatment): inhibited
PASI scores ([7]; 0.1% J9 10 mg/cm^2, at day 4 to day 5): marked decreased
IMQ-induced expression of IL-1(3 in lesional skin) ([7]; 0.5% J9 2 mg/cm^2, RT-qPCR): inhibited
IMQ-induced expression of TNF-a in lesional skin ([7]; 0.5% J9 2 mg/cm^2, RT-qPCR): inhibited
IMQ-induced inflammation ([7]; 0.5% J9 2 mg/cm^2, after 5 day treatment): inhibited
PASI scores ([7]; 0.5% J9 2 mg/cm^2, at day 4 to day 5): marked decreased
IMQ-induced expression of IL-1(3 in lesional skin) ([7]; 0.5% J9 6 mg/cm^2, RT-qPCR): inhibited
IMQ-induced expression of TNF-a in lesional skin ([7]; 0.5% J9 6 mg/cm^2, RT-qPCR): inhibited
IMQ-induced inflammation ([7]; 0.5% J9 6 mg/cm^2, after 5 day treatment): inhibited
PASI scores ([7]; 0.5% J9 6 mg/cm^2, at day 4 to day 5): marked decreased
R848 induced IL-1β expression [8]: significantly inhibited
R848 induced IL-17A expression [8]: significantly inhibited
R848 induced IL-22 expression [8]: significantly inhibited
R848 induced TNF-α expression [8]: significantly inhibited

C[C@H]1C[C@H]2[C@@H]3CCC4=CC(=O)C=C[C@]4(C)[C@@]3(F)[C@@H](O)C[C@]2(C)[C@@]1(O)C(=O)CCl [clobetasol, reference compound]
skin thickness ([3]; clobetasol 0.05% 8 mg/cm^2, day 10, compared to sham control group): reduced skin thickness compared to sham control group
IMQ-induced erythema, scaling and increase of skin thickness in lesional skin ([3]; clobetasol 0.05% 8 mg/cm^2 topical daily, after 5 day treatment): strongly inhibited
